Source: US9241497B2, “Method and apparatus for treatment of food products” (The United States of America, as represented by the …, priority 2005, dated 2016)

Experiments:
Assay type in all cases: cell-based, Listeria monocytogenes
L. monocytogenes [1] = test: Lethality studies: ACS and LAE sprayed into shrink-wrap bags, inoculated hams, 24 h at 4° C.; details: ca. 7.0 log10 CFU per ham
From the text: (§1) Bacterial Strains: Using a procedure described previously (Porto, A. C. S., et al., Journal of Food Protection, 65: 308-315 (2002)), approximately equal numbers of each of the following five strains of L. monocytogenes were used as a cocktail in this study: (i) Scott A (serotype 4b, clinical isolate); (ii) H7776 (serotype 4b, frankfurter isolate); (iii) LM-101M (serotype-4b, beef and pork sausage isolate); (iv) F6854 (serotype 1/2a, turkey frankfurter isolate); and (v) MFS-2 (serotype 1/2a, environmental isolate from a pork processing plant). For each experiment isolates were passed twice in brain heart infusion (BHI; Difco Laboratories, Detroit, Mich.) broth at 37° C. so that cells would be in the stationary phase for inoculating hams. Stock cultures were maintained by storage in BHI plus 10% (wt/vol) glycerol in 1.5-ml portions in cryovials and held at −80° C.
Lethality Studies: To evaluate the lethality of acidic calcium sulfate (ACS; Safe2O-RTE 01, Mionix Corp., Naperville, Ill.) and lauramide arginine ester (LAE; Ethyl-N-dodecanoyl-L-arginate hydrochloride; CAS No. 60372-77-2; Mirenat-N, Vedeqsa, Barcelona, Spain; also known as lauric arginate), “table brown” hams (water, ground ham trims, brine, dextrose, sugar, sodium phosphate, sodium erythorbate, and sodium nitrite; ca. 3 pounds each ham) were processed and vacuum-sealed by a commercial processor (Hatfield Quality Meats, Hatfield, Pa.). The hams were boxed, transported back to the laboratory, and stored at 4° C. for up to 7 days. Each ham was aseptically removed from its original packaging, spot inoculated with 2 mL of the cocktail using a pipette to achieve a target level of ca. 7.0 log10 CFU per ham, and then transferred to a high-performance shrink-wrap bag (B2570T, Cryovac, Duncan, S.C.). Just prior to introducing the hams, the inside of each shrink-wrap bag was sprayed with 0, 2, 4, 6, or 8 mL of either a 1:1 (1 part ACS: 1 part dH2O) or 1:2 (1 part ACS:2 parts dH2O) solution of ACS or a 5% (5 parts LAE:95 parts dH2O) or 10% (10 parts LAE:90 parts dH2O) solution of LAE. The antimicrobials for these experiments were introduced via a 24-ounce plastic spray bottle (Koch Supplies, Kansas City, Mo.). Each bag was then vacuum sealed to 950 mBar using a Multivac A300/16 vacuum-packaging unit (Sepp Haggemüller K G, Wolfertschwenden, Germany), submerged in hot (88° C.) water for approximately 5 seconds to shrink the bag, and transferred to a 4° C. incubator and held for 24 h. In a single trial, three hams were analyzed for each concentration and volume of ACS and LAE tested after 24 h of refrigerated storage.
Microbiological Analyses: Surviving L. monocytogenes were enumerated using the USDA/ARS package rinse method (Luchansky J. B., et al., Journal of Food Protection, 65: 567-570 (2002)) and spread-plating 250 uL of the resulting rinse fluid or dilutions thereof onto duplicate modified Oxford agar plates (MOX; Cook, L. V., Isolation and identification of Listeria monocytogenes from red meat, poultry, egg, and environmental samples, Chapter 8, In: USDA/FSIS Microbiology Laboratory Guidebook (3rd ed., Revision 2), Washington, D.C. (1999)) using a sterile cell spreader and incubating for 48 h at 37° C. Listeria numbers were expressed as log10 CFU per ham with each package containing a single ham; the detection limit was 1.48 log10 CFU/ham. […]

L. monocytogenes [2] = test: Validation studies of initial post-process lethality on hams; details: for average decrease in pathogen levels compared to untreated control hams: ca. 7.0 log10 CFU per ham, after 24 h at 4° C.
From the text: as §1
Validation Studies: To validate the initial post-process lethality of ACS and LAE, a fresh batch of the same formulation of hams was obtained from the same commercial manufacturer as described previously. The hams were spot inoculated with 2 mL of the L. monocytogenes cocktail to achieve a target level of ca. 7.0 log10 CFU per ham, transferred to shrink-wrap bags (Cryovac) that were previously sprayed on the inside with 0, 2.5, 4.5, or 6.5 mL of a 1:2 solution of ACS or a 5% solution of LAE, vacuum sealed, submerged in hot (88° C.) water, and placed at 4° C. In each of three trials, three hams were analyzed at each concentration and volume of ACS and LAE tested after 24 h of refrigerated storage.
(§2) Microbiological Analyses: Surviving L. monocytogenes were enumerated using the USDA/ARS package rinse method (Luchansky J. B., et al., Journal of Food Protection, 65: 567-570 (2002)) and spread-plating 250 uL of the resulting rinse fluid or dilutions thereof onto duplicate modified Oxford agar plates (MOX; Cook, L. V., Isolation and identification of Listeria monocytogenes from red meat, poultry, egg, and environmental samples, Chapter 8, In: USDA/FSIS Microbiology Laboratory Guidebook (3rd ed., Revision 2), Washington, D.C. (1999)) using a sterile cell spreader and incubating for 48 h at 37° C. Listeria numbers were expressed as log10 CFU per ham with each package containing a single ham; the detection limit was 1.48 log10 CFU/ham. Periodically, isolates were retained from randomly selected samples and confirmed as L. monocytogenes following the recommended/standard USDA/FSIS protocol (Cook, 1999).

L. monocytogenes [3] = test: Shelf-life studies: outgrowth on hams during refrigerated storage up to 60 days; details: for reduction of pathogen levels relative to untreated samples: after 24 h at 4° C.; for levels of L. monocytogenes compared to untreated control hams (statistical analyses): all volumes tested
From the text: as §1
Shelf-Life Studies: To evaluate the efficacy of ACS and LAE over the expected refrigerated shelf life of the product, a fresh batch of the same formulation of hams was obtained from the same commercial manufacturer as described previously. For these studies, hams were spot inoculated with 2 mL of the L. monocytogenes cocktail to achieve a target level of either 3.0 or 7.0 log10 CFU per ham. At each inoculation level one portion of the hams was transferred to shrink-wrap bags that were previously sprayed on the inside with 4, 6, or 8 mL of a 1:2 solution of ACS applied using a commercial spraying apparatus (AutoJet Spray System #45570-22-10-120V, Spraying Systems Co., Wheaton, Ill.) and commercial bagging apparatus (Taped Bag Loader #BL189, Cryovac). An otherwise similar portion of the inoculated hams was transferred to shrink-wrap bags that just prior to introduction of the hams were sprayed with 4, 6, or 8 mL of a 5% LAE solution using the commercial spraying and bagging apparatus. Control hams were also spot inoculated with either 3.0 or 7.0 log10 CFU of L. monocytogenes per ham and were transferred to shrink-wrap bags that were not sprayed with either compound. As described previously, hams were vacuum-sealed, submerged in hot (88° C.) water, and stored at 4° C. Hams were analyzed 1, 7, 14, 21, 28, 40, and, 60 days post-inoculation. For each of two trials, three hams were analyzed at each sampling point for both inoculation levels and for both chemicals tested.
as §2

SMILES: CCCCCCCCCCCC(=O)N[C@@H](CCCNC(=N)N)C(=O)OCC.Cl [LAE, Ethyl-N-dodecanoyl-L-arginate hydrochloride]
- decrease in L. monocytogenes levels (L. monocytogenes [1]; 2 mL of 5% solution of LAE): ca. 3.3 log10 CFU/ham
- decrease in L. monocytogenes levels (L. monocytogenes [1]; 4 mL of 5% solution of LAE): ca. 6.5 log10 CFU/ham
- decrease in L. monocytogenes levels (L. monocytogenes [1]; 6 mL of 5% solution of LAE): ~5.6 log10 CFU/ham
- decrease in L. monocytogenes levels (L. monocytogenes [1]; 8 mL of 5% solution of LAE): ca. 6.5 log10 CFU/ham
- decrease in pathogen levels (L. monocytogenes [1]; 10% solution of LAE, all 4 application volumes (2, 4, 6, 8 mL)): ca. 6.5 log10 CFU/ham
- average decrease in pathogen levels compared to untreated control hams (L. monocytogenes [2]; 2.5 mL of 5% solution of LAE): ca. 4.6 log10 CFU/ham
- average decrease in pathogen levels compared to untreated control hams (L. monocytogenes [2]; 4.5 mL of 5% solution of LAE): ~5.9 log10 CFU/ham
- reduction of levels of L. monocytogenes on the surface of hams (conclusion) (L. monocytogenes [2]; 5% solution of LAE, within 24 h at 4° C.): at least 5.0 log10 CFU/ham
- average decrease in pathogen levels compared to untreated control hams (L. monocytogenes [2]; 6.5 mL of 5% solution of LAE): ~6.1 log10 CFU/ham
- levels of the pathogen within 24 h (L. monocytogenes [3]; 4, 6, and 8 mL of 5% solution of LAE, inoculum ca. 3.0 log10 CFU/ham, 4° C., detection limit 1.48 log10 CFU/ham): below the limit of detection
- increase of L. monocytogenes levels after 60 days (L. monocytogenes [3]; 4 and 6 mL of 5% LAE solution, inoculum ca. 3.0 log10 CFU/ham, 4° C.): ca. 2.0 log10 CFU/ham
- increase of pathogen levels thereafter (after 24 h) within 60 days (L. monocytogenes [3]; 4 mL of 5% solution of LAE, inoculum ca. 7.0 log10 CFU/ham, 4° C.): ca. 4.6 log10 CFU/ham
- reduction of pathogen levels relative to untreated samples (L. monocytogenes [3]; 4 mL of 5% solution of LAE, inoculum ca. 7.0 log10 CFU/ham): ~5.1 log10 CFU/ham
- increase of pathogen levels thereafter (after 24 h) within 60 days (L. monocytogenes [3]; 6 mL of 5% solution of LAE, inoculum ca. 7.0 log10 CFU/ham, 4° C.): ~3.0 log10 CFU/ham
- reduction of pathogen levels relative to untreated samples (L. monocytogenes [3]; 6 mL of 5% solution of LAE, inoculum ca. 7.0 log10 CFU/ham): ~5.4 log10 CFU/ham
- levels of L. monocytogenes after 60 days (L. monocytogenes [3]; 8 mL of 5% LAE solution, inoculum ca. 3.0 log10 CFU/ham, 4° C., detection limit 1.48 log10 CFU/ham): remained below the detection limit
- increase of pathogen levels thereafter (after 24 h) within 60 days (L. monocytogenes [3]; 8 mL of 5% solution of LAE, inoculum ca. 7.0 log10 CFU/ham, 4° C.): ~2.0 log10 CFU/ham
- reduction of pathogen levels relative to untreated samples (L. monocytogenes [3]; 8 mL of 5% solution of LAE, inoculum ca. 7.0 log10 CFU/ham): ~5.5 log10 CFU/ham
- duration of control of further outgrowth of L. monocytogenes (L. monocytogenes [3]; initial inoculum of ca. 7.0 log10 CFU/ham, refrigerated storage): ≥ 28 days
- levels of L. monocytogenes compared to untreated control hams (statistical analyses) (L. monocytogenes [3]; inoculum ca. 3.0 log10 CFU/ham, day 1 through day 40): appreciably lower
- levels of L. monocytogenes compared to untreated control hams (statistical analyses) (L. monocytogenes [3]; inoculum ca. 7.0 log10 CFU/ham, day 1 through day 60): appreciably lower
